How the values were obtained:
Human lymphocytes = experiment: Immunosuppressive activity, 3H-thymidine incorporation in concanavalin A activated lymphocytes; assay type: cell-based; conditions: Lymphocyte, 72 hours, [3H]-TdR, read-out: Human lymphocytes ED50
Source text: One of the most important parameters of specific cellular immunity is proliferative response of lymphocytes to antigens or polyclonal mitogens. The majority of normal mammalian peripheral lymphocytes comprise resting cells. Antigens or nonspecific polyclonal mitogens have the capacity to activate lymphoid cells and this is accompanied by dramatic changes of intracellular metabolism (mitochondrial activity, protein synthesis, nucleic acids synthesis, formation of blastic cells and cellular proliferation). […] Variety of in vitro assays was developed to measure proliferative response of lymphocytes. The most commonly used is ^3H-thymidine incorporation method.
During cell proliferation, DNA has to be replicated before the cell is divided into two daughter cells. This close association between cell doublings and DNA synthesis is very attractive for assessing cell proliferation. If labelled DNA precursors are added to the cell culture, cells that are about to divide incorporate the labelled nucleotide into their DNA. Traditionally, those assays usually involve the use of radiolabelled nucleosides, particularly tritiated thymidine ([^3H]-TdR). The amount of [^3H]-TdR incorporated into the cellular DNA is quantified by liquid scintillation counting.
Human heparinized peripheral blood was obtained from healthy volunteers by cubital vein punction. The blood was diluted in PBS (1:3) and mononuclear cells were separated by centrifugation in Ficoll-Hypaque density gradient (Pharmacia, 1.077 g/ml) at 2200 rpm for 30 minutes. Following centrifugation, lymphocytes were washed in PBS and resuspended in cell culture medium (RMPI 1640, 2 mM glutamine, 100 U/ml penicillin, 100 μg/ml streptomycin, 10% fetal calf serum and sodium bicarbonate).
The cells were diluted at target density of 1,100,000 cells/ml were added by pipette (180 μl) into 96/well microtiter plates. Four-fold dilutions of the intended test concentration were added at time zero in 20 μl aliquots to the microtiter plate wells. Usually, test compound was evaluated at six 4-fold dilutions. In routine testing, the highest well concentration was 266.7 μM. All drug concentrations were examined in duplicates. All wells with exception of unstimulated controls were activated with 50 μl of concanavalin A (25 μg/ml). Incubations of cells with test compounds lasted for 72 hours at 37° C., in 5% CO2 atmosphere and 100% humidity. At the end of incubation period, the cells were assayed by using the [^3H]-TdR:
Cell cultures were incubated with 0.5 μCi (20 μl of stock solution 500 μCi/ml) per well for 6 hours at 37° C. and 5% CO2. The automated cell harvester was used to lyse cells in water and adsorb the DNA onto glass-fiber filters in the format of microtiter plate. The DNA incorporated [^3H]-TdR was retained on the filter while unincorporated material passes through. The filters were dried at room temperature overnight, sealed into a sample bag with 10-12 ml of scintillant. The amount of [^3H]-TdR present in each filter (in cpm) was determined by scintillation counting in a Betaplate liquid scintillation counter. The effective dose of immunosuppressant (ED) was calculated using the following equation: ED=(CCPMdrug exposed well/mean CCPMcontrol wells)×100%. The ED50 value, the drug concentration inhibiting proliferation of 50% of lymphocytes, was calculated from the obtained dose response curves.

K-562 = experiment: Calcein AM cytotoxicity, K-562; assay type: cell-based; conditions: Homo sapiens, K562, 72 h, read-out: IC 50, K-562
Source text: (§1) One of the parameters used, as the basis for cytotoxicity assays, is the metabolic activity of viable cells. For example, a microtiter assay, which uses the Calcein AM, is now widely used to quantitate cell proliferation and cytotoxicity. For instance, this assay is used in drug screening programs and in chemosensitivity testing. Because only metabolically active cells cleave Calcein AM, these assays detect viable cells exclusively. The quantity of reduced Calcein AM corresponds to the number of vital cells in the culture.
(§2) The cells were maintained in Nunc/Corning 80 cm^2 plastic tissue culture flasks and cultured in cell culture medium (DMEM with 5 g/l glucose, 2 mM glutamine, 100 U/ml penicillin, 100 μg/ml streptomycin, 10% fetal calf serum and sodium bicarbonate).
(§3) The cell suspensions that were prepared and diluted according to the particular cell type and the expected target cell density (2.500-30.000 cells per well based on cell growth characteristics) were added by pipette (80 μl) into 96/well microtiter plates. Inoculates were allowed a pre-incubation period of 24 hours at 37° C. and 5% CO2 for stabilisation. Four-fold dilutions of the intended test concentration were added at time zero in 20 μl aliquots to the microtiter plate wells. Usually, test compound was evaluated at six 4-fold dilutions. […] All drug concentrations were examined in duplicates. Incubations of cells with the test compounds lasted for 72 hours at 37° C., in 5% CO2 atmosphere and 100% humidity. At the end of incubation period, the cells were assayed by using the Calcein AM. Ten microliters of the stock solution were pipetted into each well and incubated further for 1 hours. Fluorescence (FD) was measured with the Labsystem FIA Reader Fluoroscan Ascent (UK).

[1] = system: breast carcinoma cell line MCF-7; experiment: Calcein AM cytotoxicity, MCF7; assay type: cell-based, human; conditions: Homo sapiens, MCF7, 72 h, read-out: IC 50, MCF7
Source text: as §1, §2, §3

B16-F0 melanoma = experiment: Calcein AM cytotoxicity, B16-F0; assay type: cell-based; conditions: Mus musculus, B16F0, 72 h, read-out: IC 50, B16-F0
Source text: as §1
(§4) Human T-lymphoblastic leukemia cell line CEM; promyelocytic HL-60 and monocytic U937 leukemias; breast carcinoma cell lines MCF-7, BT549, MDA-MB-231; glioblastoma U87MG cells; cervical carcinoma cells HELA; sarcoma cells U2OS and Saos2; hepatocellular carcinoma HepG2; mouse fibroblasts NIH3T3; mouse immortalized bone marrow macrophages B2.4 and B10A.4; P388D1 and L1210 leukemia; B16 and B16F10 melanomas were used for routine screening of compounds. The cells were maintained in Nunc/Corning 80 cm^2 plastic tissue culture flasks and cultured in cell culture medium (DMEM with 5 g/l glucose, 2 mM glutamine, 100 U/ml penicillin, 100 μg/ml streptomycin, 10% fetal calf serum and sodium bicarbonate).
(§5) The cell suspensions that were prepared and diluted according to the particular cell type and the expected target cell density (2.500-30.000 cells per well based on cell growth characteristics) were added by pipette (80 μl) into 96/well microtiter plates. Inoculates were allowed a pre-incubation period of 24 hours at 37° C. and 5% CO2 for stabilisation. Four-fold dilutions of the intended test concentration were added at time zero in 20 μl aliquots to the microtiter plate wells. Usually, test compound was evaluated at six 4-fold dilutions. In routine testing, the highest well concentration was […], but it can be the matter of change dependent on the agent. All drug concentrations were examined in duplicates. Incubations of cells with the test compounds lasted for 72 hours at 37° C., in 5% CO2 atmosphere and 100% humidity. At the end of incubation period, the cells were assayed by using the Calcein AM. Ten microliters of the stock solution were pipetted into each well and incubated further for 1 hours. Fluorescence (FD) was measured with the Labsystem FIA Reader Fluoroscan Ascent (UK). The tumour cell survival (GI50) was calculated using the following equitation: TCS═(FDdrug exposed well/mean FDcontrol wells)×100%. The GI50 value, the drug concentration lethal to 50% of the tumour cells, was calculated from the obtained dose response curves (FIG. 1).

[2] = system: T-lymphoblastic leukemia cell line CEM; experiment: Calcein AM cytotoxicity, CEM; assay type: cell-based, human
Source text: as §1, §2, §3

[3] = system: promyelocytic HL-60 leukemia; experiment: Calcein AM cytotoxicity, HL60; assay type: cell-based, human; conditions: Homo sapiens, HL-60, 72 h, read-out: IC 50, HL60
Source text: as §1, §2, §3

[4] = system: Triticum aestivum cv. Hereward leaf tips; experiment: Retention of chlorophyll in excised wheat leaf tips; assay type: in vivo; conditions: chlorophyll retention at the concentration with highest activity
Summary of the method: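 Tips of first leaves from 7-day wheat (cv. Hereward) seedlings kept on compound solutions (10^−8 to 10^−4 M, from DMSO stock) for 96 h in the dark at 25 °C. Chlorophyll extracted in 80% ethanol at 80 °C and read at 665 nm. Activity at the best concentration expressed relative to 10^−4 M BAP (100%), five replicates.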

[5] = system: tobacco callus Nicotiana tabacum L. cv. Wisconsin 38; experiment: Cytokinin-dependent tobacco callus growth; assay type: cell-based; conditions: fresh callus weight at the concentration with highest activity
[6] = system: Amaranthus caudatus cotyledon/hypocotyl explants; experiment: Amaranthus bioassay, betacyanin content; assay type: in vivo; conditions: betacyanin content at the concentration with highest activity
[7] = system: human diploid fibroblasts (HCA cells); experiment: Senescence, beta-galactosidase staining of human diploid fibroblasts; assay type: cell-based
Procedure: In this example, human diploid fibroblasts (HCA cells of various passage levels: passage 25—designated HCA25; passage 45—designated HCA45; passage 80—designated HCA80) were stained for β-galactosidase activity. The medium used for cell cultivation was removed, the cells were washed twice in […], and fixed in 2-3 ml of fixing solution comprised of a 2% formaldehyde and 0.2% glutaraldehyde in PBS. The cells were incubated at room temperature for 5 minutes, then washed twice with PBS. The cells were subsequently incubated at 37° C. (without CO2) for 1 to 16 hours in 2-3 ml of a solution comprising potassium ferricyanide (5 mM), potassium ferrocyanide (5 mM), MgCl2 (2 mM), X-gal (5-bromo-4-chloro-3-indolyl-β-D-galactopyranoside) (1 mg/ml), in citric/phosphate buffer, pH 6.0). […] In this experiment, senescent cells, but not other cells were stained blue due to the action of β-galactosidase on the substrate (FIG. 4).

HOS = experiment: Calcein AM cytotoxicity, HOS; assay type: cell-based; conditions: Homo sapiens, HOS, 72 h
Source text: as §1, §4, §5

| SMILES | EC50 (Human lymphocytes) [nM] | IC50 (K-562) [µM] | IC50 [1] [µM] | IC50 (B16-F0 melanoma) [µM] | IC50 ([2]; 72 hours, listed as 2,4,6triMeO BAP) [µM] | IC50 ([2]; Homo sapiens, 72 h) [µM] | IC50 [3] [µM] | Activity (%) [10^−4 mol · l^−1 BAP = 100%] [4] | Activity (%) [10^−4 mol · l^−1 BAP = 100%] [5] | activity (%) [10^−5 mol · l^−1 BAP = 100%] [6] | SENESCENT CELLS (%) HCA25 ([7]; passage 25) [%] | SENESCENT CELLS (%) HCA45 ([7]; passage 45) [%] | SENESCENT CELLS (%) HCA80 ([7]; passage 80) [%] | IC50 ([2]; 72 hours, listed as 3Cl4F BAP) [µM] | IC50 (HOS) [µM] |
| --- | --- | --- | --- | --- | --- | --- | --- | --- | --- | --- | --- | --- | --- | --- | --- |
| COc1ccc(CNc2ncnc3nc[nH]c23)c(O)c1 [2-hydroxy-4-methoxybenzylamino, 6-(2-hydroxy-4-methoxybenzylamino)purine] | 1800 |  |  |  |  |  |  |  |  |  |  |  |  |  |  |
| COc1cc(OC)c(CNc2ncnc3nc[nH]c23)c(OC)c1 [6-(2,4,6-trimethoxybenzylamino)purine] |  | > 167 | > 167 | > 167 | 105 | 63.6 | 153 | 6 (±4) % | 13 (±6) % | 3 (±3) % |  |  |  |  |  |
| Oc1ccc(CNc2ncnc3nc[nH]c23)cc1O [6-(3,4-dihydroxybenzylamino)purine] |  | > 167 | > 167 | > 167 |  | > 167 | > 167 |  | 4 (±1) % | 8 (±3) % | 5 | 4 | 29 |  |  |
| Fc1ccc(CNc2ncnc3nc[nH]c23)cc1Cl [6-(3-chloro-4-fluorobenzylamino)purine] |  | > 167 | > 167 | > 167 |  | 135 | > 167 | 141 (±20) % | 90 (±1) % | 91 (±7) % |  |  |  | 95.8 |  |
| COc1ccc(CNc2ncnc3nc[nH]c23)cc1O [6-(3-hydroxy-4-methoxybenzylamino)purine] |  | > 167 | > 167 | > 167 |  | > 167 | > 167 |  |  | 24 (±1) % |  |  |  |  |  |
| Cc1cccc(CNc2ncnc3nc[nH]c23)c1 [6-(3-methylbenzylamino)purine] |  | > 167 | 102 | 164 |  | > 167 | > 167 | 111 (±16) % | 79 (±5) % | 84 (±14) % |  |  |  |  |  |
| COc1cc(CNc2ncnc3nc[nH]c23)ccc1O [6-(4-hydroxy-3-methoxybenzylamino)purine] |  | > 167 | > 167 | > 167 |  | > 167 | > 167 |  |  | 10 (±2) % |  |  |  |  |  |
| COc1ccc(CNc2ncnc3nc[nH]c23)cc1 [6-(4-methoxybenzylamino)purine] |  |  |  | 84.7 |  |  |  | 79 (±6) % | 39 (±17) % | 23 (±2) % |  |  |  |  | > 167 |
| O=[N+]([O-])c1ccc(CNc2ncnc3nc[nH]c23)cc1 [6-(4-nitrobenzylamino)purine] |  | > 167 | > 167 | > 167 |  | > 167 | > 167 | 83 (±8) % |  | 25 (±2) % |  |  |  |  |  |
